We go through two molecules from patent publication US12365687B2 (Hoffmann-La Roche Inc., priority 2021, dated 2025).

Assay [1] concerns the target human GABAA α5β2γ1 receptor (Homo sapiens (Human), UniProt P31644+Q8N1C3). Briefly: Radioligand binding assay for γ1-containing GABAA subtypes, [3H]RO7239181 competition (α5β2γ1).
The target in assay [2] is human GABAA α2β2γ1 receptor (Homo sapiens (Human), UniProt P47869+Q8N1C3). Description: Radioligand binding assay for γ1-containing GABAA subtypes, [3H]RO7239181 competition (α2β2γ1).
For assay [3], the target named is human GABAA α1β2γ1 receptor (Homo sapiens (Human), UniProt P14867+Q8N1C3). Description: Radioligand binding assay for γ1-containing GABAA subtypes, [3H]RO7239181 competition (α1β2γ1). As for the experimental part: The affinity of compounds at GABAA γ1 subunit-containing receptors was measured by competition for [^3H]RO7239181 (67.3 Ci/mmol; Roche) binding to membranes from HEK293F cells (ThermoFisher R79007) expressing human (transiently transfected) receptors of composition α5β2γ1, α2β2γ1, α1β2γ1.
Harvested pellets from HEK293F cells expressing the different GABAA receptor subtypes were resuspended in Mannitol Buffer pH 7.2-7.4 (Mannitol 0.29 M, Triethylamine 10 mM, Acetic acid 10 mM, EDTA 1 mM plus protease inhibitors (20 tablets Complete, Roche Diagnostics Cat. No. 05 056 489 001 per liter)), washed two times and then resuspended at 1:10 to 1:15 dilution in the same buffer. Cell disruption was performed by stirring the suspension in a Parr vessel #4637 at 435 psi for 15 minutes, and then the suspensions were centrifuged at 1000×g for 15 minutes at 4° C. (Beckman Avanti J-HC; rotor JS-4.2). The supernatant (S1) was transferred in a 2 l Schott flask and the pellet (P1) was resuspended with Mannitol Buffer up to 175 ml. The resuspended pellet was transferred into a 250 ml Corning centrifugal beaker and centrifuged at 1500×g for 10 minutes at 4° C. (Beckman Avanti J-HC; rotor JS-4.2). The supernatant (S1) was then transferred in the 2 l Schott flask and the pellet was discarded. The supernatants (S1) were centrifuged in 500 ml Beckman polypropylene centrifugal beaker at 15′000×g for 30 minutes at 4° C. (Beckman Avanti J-20 XP; rotor JLA-10.500). The pellet (P2) was resuspended with Mannitol Buffer 1:1 and frozen at −80° C. The supernatant (S2) was centrifuged in 100 ml Beckman polypropylene centrifugal tubes at 48000×g for 50 minutes at 4° C. (Beckman Avanti J-20 XP; rotor JA-18). The supernatant (S3) was discarded and the pellet (P3) was resuspended with 1:1 Mannitol Buffer. The P2 and P3 protein concentration was determined with the BIORAD Standard assay method with bovine serum albumin as standard and measured on the NANO-Drop 1000. The membrane suspension was aliquots (500 μl per tube) and stored at −80° C. until required.
Membrane homogenates were resuspended and polytronised (Polytron PT1200E Kinematica AG) in Potassium Phosphate 10 mM, KCl 100 mM binding buffer at pH 7.4 to a final assay concentration determined with a previous experiment.
Assays were incubated to equilibrium for 1 hour at 4° C. and then, membranes were filtered onto unifilter (96-well white microplate with bonded GF/C filters preincubated 20-50 minutes in 0.3% Polyethylenimine) with a Filtermate 196 harvester (Packard BioScience) and washed 4 times with cold Potassium Phosphate 10 mM pH 7.4, KCl 100 mM binding buffer. After anhydrousing, filter-retained radioactivity was detected by liquid scintillation counting. Ki values were calculated using Excel-Fit (Microsoft) and are the means of two determinations.

The target of assay [4] is human GABAA α1β3γ2 receptor (Homo sapiens (Human), UniProt P14867+P18507). Briefly: Radioligand binding assay for γ2-containing GABAA subtypes, [3H]Flumazenil competition (α1β3γ2). The settings on record: for γ2/γ1 Selectivity Ratio: Ki α1β3γ2 (nM)/Ki α2β2γ1 (nM); for LogSel: Log[Ki α1β3γ2 (nM)/Ki α2β2γ1 (nM)].
Assay [5] concerns the target α2β2γ1 GABAA receptor subtype (Homo sapiens (Human), UniProt P47869+Q8N1C3). Briefly: Two-electrode voltage clamp electrophysiology in Xenopus oocytes expressing GABAA receptors (modulation of GABA EC20 current). Type of assay: cell-based. The settings on record: for Efficacy (GABA)%: % modulation of GABA EC20 = 100*(Fold increase-1), α2β2γ1 oocytes, compound at approx. 30-fold Ki; for Fold increase h-GABA-A α2β2γ1 oocyte @ 30-fold Ki: Xenopus oocytes expressing α2β2γ1, compound at approx. 30-fold its Ki α2β2γ1, GABA EC20 current. An outline of the steps:
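Two-electrode voltage clamp at −80 mV, room temperature, 3-5 days after mRNA injection into oocytes. GABA applied at EC20 for 1.5 min, twice, with compound during second application; at least 3 oocytes per concentration. Efficacy = extremum of point-by-point current ratio, expressed as 100×(fold increase−1).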

[6] abbreviates: Ki h-GABAA α2β2γ1, [3H]RO7239181 competition binding, human GABAA α2β2γ1.
Setting [7] is: Ki h-GABAA α2β2γ1, displacement of [3H]RO7239181, membranes of HEK293F cells expressing human receptors, means of two determinations.

Turning to `Cc1nnc(-c2nc3n(n2)-c2ccc(C(F)(F)F)c(Cl)c2C(c2ncccc2F)=N[C@H]3C)o1` [Example 144, 2-[(4S)-7-chloro-6-(3-fluoro-2-pyridyl)-4-methyl-8-(trifluoromethyl)-4H-[1,2,4]triazolo[1,5-a][1,4]benzodiazepin-2-yl]-5-methyl-1,3,4-oxadiazole], the Ki was 8.3 nM in assay [1]; 73.5 nM in assay [2] (setting [6]); 73.5 nM in assay [2] (setting [7]); 179 nM in assay [3]; 13500 nM in assay [4]. For the same molecule, in assay [4], the “γ2/γ1 Selectivity Ratio” value is on record as 183.6. Also, the LogSel in assay [4] was found to be 2.26. Besides, the “Efficacy (GABA)%” value in assay [5] is listed as 169%. For the same molecule, the “Fold increase h-GABA-A α2β2γ1 oocyte @ 30-fold Ki” value in assay [5] is recorded as 2.69.

With `C[C@@H]1N=C(c2ncccc2F)c2c(ccc(C(F)(F)F)c2Cl)-n2cc(C(=O)NCC(C)(C)O)nc21` [Example 159, (4S)-7-chloro-6-(3-fluoro-2-pyridyl)-N-(2-hydroxy-2-methyl-propyl)-4-methyl-8-(trifluoromethyl)-4H-imidazo[1,2-a][1,4]benzodiazepine-2-carboxamide], the Ki in assay [1] worked out at 11.4 nM; in assay [2] (setting [6]) it was 43 nM; in assay [2] (setting [7]) it was 42.6 nM; in assay [3] it was 70.4 nM; in assay [4], 8320 nM. The “γ2/γ1 Selectivity Ratio” value in assay [4] is 195.6. Moreover, the LogSel in assay [4] was determined as 2.29. Moreover, in assay [5], the “Efficacy (GABA)%” value came out at 217%. In addition, in assay [5], the “Fold increase h-GABA-A α2β2γ1 oocyte @ 30-fold Ki” value is 3.17.

As a reminder, the Ki is the dissociation constant of the complex between target and ligand, obtained from inhibition or displacement. Read a high Ki as a looser hold on the target.
